Results from paper PMC4684500, “Diversity, Antimicrobial Action and Structure-Activity Relationship of Buffalo Cathelicidins” (PLoS ONE, 2015).
Where no end group is shown, it is not given here.

How the values were obtained:
[1] = system: Acinetobacter johnsonii NCDC-0072; format: cell-based; settings: 24 h
Protocol: (§1) The buCATHL4 peptides were synthesized by G L Biochem (Shanghai, China). Purity and molecular mass of the peptides were provided by the vendors using HPLC and mass spectrometry, respectively. The purity of all peptides were >98%. Minimum inhibitory concentrations (MIC) of buCATHL4s against the pathogenic microorganisms were tested by broth micro-dilution technique. Briefly, bacteria were grown in Mueller Hinton broth (Sigma-Aldrich, MO, USA) at 37°C. The OD of early-log phase cultures were adjusted to 0.08–0.1 and further diluted (1:200) to keep inoculums concentration nearly 10^6 colony forming units (CFU)/ml. Diluted peptides (10 μl) were mixed with equi-volume solution A (0.02% acetic acid containing 0.4% BSA) and were serially diluted in the solution B (0.01% acetic acid containing 0.2% BSA). Bacterial inoculums (90 μl) were mixed with serially diluted peptides and incubated at 37°C for 24 h without shaking. […] All peptides were tested in triplicate. For time kill kinetics experiments, peptides (1×, 2× and 4× MIC) were added to bacterial suspension of Staphylococcus aureus, Salmonella enterica and Pseudomonas aeruginosa, as described in the MIC determination method. Aliquots of representative wells were diluted and plated on Muller Hinton agar plates at 0, 1, 4, 12 and 24 h intervals. Water with 0.01% acetic acid and ampicillin (100 mg/ml) were taken as […] controls, respectively. The results were represented as log CFU/ml.

[2] = system: Bacillus cereus NCDC-0240; format: cell-based; settings: NCDC-0240, 24 h
Protocol: as §1

[3] = system: Escherichia coli MTCC-0723; format: cell-based; settings: MTCC-0723, 24 h
Protocol: as §1

[4] = system: Pseudomonas aeruginosa NCDC-0105; format: cell-based; settings: NCDC-0105, 24 h
Protocol: as §1

[5] = system: Pseudomonas aeruginosa ATCC-27853; format: cell-based; settings: ATCC-27853, 24 h
Protocol: as §1

[6] = system: Listeria monocytogenes ATCC-19111; format: cell-based; settings: ATCC-19111, 24 h
Protocol: as §1

[7] = system: Salmonella typhimurium ATCC-14028; format: cell-based; settings: ATCC-14028, 24 h
Protocol: as §1

[8] = system: PBMCs; assay: In vitro cytokine response, qRT-PCR; format: cell-based, buffalo; settings: peptide 500 nM, 1 h, qRT-PCR vs PBS control, p<0.05
Protocol: For measurement of in vitro cytokine response, PBMCs were isolated from blood and maintained in serum-free RPMI-1640 (Sigma Aldrich, MO, USA) medium. Cells were exposed to peptides (500 nM), muramyl-di-peptide (Invivogen, San Diego, CA) [MDP (10 μg/ml) as positive control] and PBS (negative control). Cells were incubated for 1 h and relative mRNA abundance of cytokines was quantified by qRT-PCR using RPS-18 gene as housekeeping control. Total RNA, extracted by TRIzol (Ambion, CA, USA) method was used for cDNA preparation (Superscript III cDNA synthesis kit; Invitrogen, CA, USA).qRT-PCR reactions were performed in a Light Cycler® 480 II machine (Roche Diagnostics, USA). Each reaction consisted of 2 μl cDNA template, 5 μl of 2× SYBR® Green PCR Master Mix (Thermo Scientific, PA, USA), 0.25 μl each of forward and reverse primers (10 pmol) and nuclease free water for a final volume of 10 μl. Each sample was run in duplicate.

[9] = system: S. typhimurium; assay: LIVE/DEAD BacLight membrane permeability assay; format: cell-based, Salmonella typhimurium; settings: peptide 200μM, SYTO9/PI
Protocol: (§2) The damage to bacterial membrane following addition of peptide was assessed by BacLight kit (Life Technologies, CA, USA). Aliquots of S. aureus, S. enterica and P. aeruginosa cultures from exponential (shaking incubation for 2, 3, and 4 h, respectively) and stationary phases (overnight incubation) were harvested by centrifugation (5000 g for 10 min) and diluted in PBS. Peptides (200μM) were added to bacterial suspension and 50 μl aliquots were removed immediately or after 1 h incubation. Equi-volume mixtures of SYTO9/PI (3 μl/ml bacterial suspension) were added to these aliquots and fluorescent micrographs of stained bacteria were taken at 1000×magnification in a microscope (Olympus BX51 fitted with DP71 camera) with a fluorescence illuminator system.

[10] = system: S. aureus; assay: Scanning and transmission electron microscopy; format: cell-based, Staphylococcus aureus; settings: lower concentrations (≤2× MIC)
Protocol: (§3) Early log phase cultures of S. aureus and S. enterica were subjected to different concentration of peptides and incubated at 37°C. The bacterial pellets after centrifugation (5000 g for 10 min) were washed with 0.1M cacodylate buffer (pH 7.2) and were fixed in 2.5% gluteraldehyde at 4°C for 2 h. For scanning electron microscopy, bacteria were dehydrated using gradient series of ethanol wash (30, 50, 70, 90 and absolute). The samples were air-dried overnight, gold coated (Eiko IB-3 ion coater), and viewed in a Zeiss EVO 18 Special Edition SEM. For transmission electron microscopy, fixed samples were adhered to hexagonal PELCO® Grids (Ted Pella, Inc. USA), washed once with Mili-Q water and stained with uranyl acetate (2%) buffer. Samples were viewed in a JEM 1011 (Jeol, Japan) microscope.

[11] = system: Stahylococcus aureus NCDC-0111; format: cell-based, Staphylococcus aureus; settings: 24 h
Protocol: as §1

[12] = system: Stahylococcus aureus ATCC-29213; format: cell-based, Staphylococcus aureus; settings: ATCC-29213, 24 h
Protocol: as §1

[13] = system: P. aeruginosa biofilm; assay: Biofilm assay (crystal violet); format: cell-based, Pseudomonas aeruginosa; settings: peptide at 1× and 2× MIC, 24 h 37°C, crystal violet A570
Protocol: (§4) The efficacy of peptides against biofilms of S. aureus and P. aeruginosa was determined using previously described method. Overnight grown bacterial cultures were diluted (1:100) and 200 μl suspensions were mixed with each peptide (1× and 2× MIC) in a 96 well plate and incubated for 24 h at 37°C. Biofilms were fixed with paraformadehyde solution, cultures were decanted and 0.1% crystal violet solution was added to stain the film. The plate was rinsed thrice with water and air-dried. The stain was dissolved by 100 μl of acetic acid (30%) and absorbance was measured at 570 nm. The experiment was performed in triplicate, 30% acetic acid was taken as a blank.

[14] = system: S. aureus, S. typhimurium and P. aeruginosa; assay: Time kill kinetics, three pathogens; format: cell-based; settings: peptide at 4× MIC
Protocol: as §1

[15] = system: S. aureus; assay: LIVE/DEAD BacLight membrane permeability assay; format: cell-based, Staphylococcus aureus; settings: peptide 200μM, log phase culture, SYTO9/PI
Protocol: as §2

[16] = system: S. aureus biofilm; assay: Biofilm assay (crystal violet); format: cell-based, Staphylococcus aureus; settings: peptide at 1× and 2× MIC, 24 h 37°C, crystal violet A570
Protocol: as §4

[17] = system: S. aureus; assay: Time kill kinetics; format: cell-based, Staphylococcus aureus
Protocol: as §1

[18] = system: S. typhimurium; assay: Scanning and transmission electron microscopy; format: cell-based, Salmonella typhimurium
Protocol: as §3

## RIRFPWPWRWPWWRRVRG [buCATHL4C]
[1]
  MIC: 6 µM
[2]
  MIC: 0.8 µM
[3]
  MIC: 12.5 µM
[4]
  MIC: 6 µM
[5]
  MIC: 0.2 µM
[6]
  MIC: 1.5 µM
[7]
  MIC: 3 µM
[8]
  TNF-α mRNA response: significantly higher
[9]; log phase culture
  Clumping (agglutination) of S. typhimurium after peptide addition: immediate clumping
[9]; stationary phase culture, proportion of cells affected comparatively less
  Membrane permeability of latent (stationary phase) S. typhimurium: affected membrane permeability
[10]
  Morphological change of S. aureus cells (SEM/TEM): swelling and blebing
[11]
  MIC: 0.4 µM
[12]
  MIC: 0.2 µM
[13]
  Reduction in biofilm growth of P. aeruginosa: substantial
[14]
  Killing rate compared with indolicidin and ampicillin: comparatively better killing rate
[15]
  Clumping (agglutination) of S. aureus after peptide addition: immediate clumping
[16]
  Reduction in biofilm growth of S. aureus: substantial
[17]; peptide at 2× MIC, plating at 0, 1, 4, 12, 24 h
  Growth inhibition of S. aureus in time kill kinetics: complete growth inhibition
[17]; peptide at 4× MIC, time kill kinetics
  Time to complete elimination of S. aureus: 4 h
[18]; Fig 5H and 5L, S. typhimurium, with extensive wrinkling of membrane
  Formation of pore like structures over the membrane (SEM/TEM): Formation of pore like structures
[18]; more evident with S. typhimurium
  Formation of negative curvature on membrane (SEM/TEM): Formation of negative curvature
